Measured values from article PMC7029851, “Antibacterial activity of novel dual bacterial DNA type II topoisomerase inhibitors” (PLoS ONE, 2020).
Converted amounts (≈) assume the structure as drawn. Counter-ions that a name gives are not always drawn. Like-named read-outs stand apart in the source and are kept apart here.

Experiments:
[1] = system: E. coli clinical isolates (n = 36); assay: MIC, multidrug-resistant clinical isolates; assay type: cell-based, Escherichia coli; conditions: E. coli MDR clinical isolates (n = 36)
Protocol: (§1) The bacterial reference strains used in this study were purchased from ATCC (American Type Culture Collection) via LGC Standards (Middlesex, UK). […] Clinical MDR isolates were provided by Aptuit, the IHMA Europa Sàrl repository (Epalinges, Switzerland) and the Statens Serum Institute (Copenhagen, Denmark).
(§2) MICs were determined by the broth microdilution method (the agar dilution method was used only for N. gonorrhoeae) according to CLSI guidelines.
(§3) The results obtained using clinical isolates are reported as MIC50 and MIC90 values.

[2] = system: E. faecalis clinical isolates (n = 12) vanA (6)/vanB (6); assay: MIC, multidrug-resistant clinical isolates; assay type: cell-based; conditions: for MIC: read-out: MIC range
Protocol: as §1, §2, §3

[3] = system: E. faecium clinical isolates (n = 12) vanA (6)/vanB (6); assay: MIC, multidrug-resistant clinical isolates; assay type: cell-based; conditions: for MIC: read-out: MIC range
Protocol: as §1, §2, §3

[4] = system: N. gonorrhoeae clinical isolates (n = 38); assay: microbe, parasite or virus in culture; assay type: cell-based, Neisseria gonorrhoeae
Protocol: as §1, §2, §3

[5] = system: C. difficile clinical isolates (n = 21); assay: MIC, multidrug-resistant clinical isolates; assay type: cell-based, Clostridium difficile; conditions: Clostridioides difficile; for MIC: read-out: MIC range
Protocol: as §1, §2, §3

C. difficile ATCC 700057 = assay: MIC, broth microdilution; assay type: cell-based, Clostridium difficile; conditions: Clostridioides difficile, ATCC700057
Protocol: MICs were determined by the broth microdilution method (the agar dilution method was used only for N. gonorrhoeae) according to CLSI guidelines. […] The MIC values of antibiotics used in clinical practice were interpreted according to the susceptibility interpretive criteria reported in the appropriate CLSI Tables (M100-S25, CLSI, 2015).

[6] = system: S. aureus clinical isolates (n = 10); assay: microbe, parasite or virus in culture; assay type: cell-based, Staphylococcus aureus
Protocol: as §1, §2, §3

S. aureus ATCC BAA-1720 = assay: Time-kill assay; assay type: cell-based, Staphylococcus aureus; conditions: 1× to 4× MIC, over 24 hours
Protocol: Time-kill experiments were performed according to the procedure reported by Knapp. […] A drug-free control was included in each experiment. The bacterial cultures were standardized to obtain an initial inoculum that ranged from 5×10^5 to 5×10^6 CFU/ml. The cultures were incubated at 37°C in a shaking bath. At 0, 2, 4, 8 and 24-hour intervals, viable counts were performed by spotting (in triplicate) 10 μl aliquots of suitable dilutions of the cultures onto Mueller-Hinton agar (MHA, Oxoid, Basingstoke, UK) plates. After incubation at 37°C for 24 hours, the bactericidal activity, namely, the ability to reduce the initial inoculum by 3 log10 CFU/ml, was assessed for each tested concentration over time.

E. coli ATCC 25922 = assay: Minimal bactericidal concentration; assay type: cell-based, Escherichia coli; conditions: Escherichia coli, ATCC25922, ≥99.9% reduction of inoculum
Protocol: (§4) Minimal bactericidal concentrations (MBCs) were determined according to the procedure described by Knapp. Viable counts were performed after plates were incubated at 37°C for 24 hours. The MBC was defined as the lowest concentration that reduced the viability of the initial bacterial inoculum by ≥99.9%.

S. aureus BAA-1720 = assay: Minimal bactericidal concentration; assay type: cell-based, Staphylococcus aureus; conditions: Staphylococcus aureus, BAA1720, ≥99.9% reduction of inoculum
Protocol: as §4

S. aureus ATCC 29213 [7] = assay: Minimal bactericidal concentration; assay type: cell-based, Staphylococcus aureus; conditions: Staphylococcus aureus, ATCC29213, ≥99.9% reduction of inoculum
Protocol: as §4

S. aureus ATCC 29213 [8] = assay: Post-antibiotic effect (PAE); assay type: cell-based, Staphylococcus aureus
Protocol: A drug-free control was included in each experiment. After being exposed to the drug for 1 hour, viable counts were conducted in triplicate by spotting aliquots (10 μl) of suitable dilutions onto MHA plates. The drugs were removed by diluting the bacterial cultures (1:1000) in Cation-Adjusted Mueller-Hinton Broth (CAMHB; Sigma-Aldrich). The diluted cultures were incubated in a shaking bath at 37°C. To monitor the ongoing suppression of bacterial growth over time (5 hours), aliquots from each broth culture were periodically collected, diluted and plated to perform subsequent viable counts (in triplicate).

[9] = system: A. baumannii clinical isolates (n = 10); assay: microbe, parasite or virus in culture; assay type: cell-based, Acinetobacter baumannii; conditions: Acinetobacter baumannii
Protocol: as §1, §2, §3

[10] = Escherichia coli, read-out: MIC50
[11] = Escherichia coli, read-out: MIC90
[12] = C. difficile clinical isolates (n = 21), read-out: MIC50
[13] = C. difficile clinical isolates (n = 21), read-out: MIC90
[14] = C. difficile clinical isolates (n = 21)
[15] = E. faecalis clinical isolates (n = 12), vanA (6)/vanB (6)
[16] = E. faecium clinical isolates (n = 12), vanA (6)/vanB (6)

CN(C)[C@@H]1C(O)=C(C(N)=O)C(=O)[C@@]2(O)C(O)=C3C(=O)c4c(O)cccc4[C@@](C)(O)[C@H]3C[C@@H]12 [tetracycline, tetracycline hydrochloride]
MIC50 [1, 10]: 16 µg/mL | MIC90 [1, 11]: > 64 µg/mL

CC1(C)S[C@@H]2[C@H](NC(=O)Cc3ccccc3)C(=O)N2[C@H]1C(=O)O [penicillin, penicillin G potassium, reference compound]
MIC50 ([2]; Enterococcus faecalis): 4 µg/mL | MIC90 ([2]; Enterococcus faecalis): 8 µg/mL | MIC ([2]; Enterococcus faecalis): 2 to 16 µg/mL | MIC50 ([3]; Enterococcus faecium): > 64 µg/mL | MIC90 ([3]; Enterococcus faecium): > 64 µg/mL | MIC ([3]; Enterococcus faecium): > 64 µg/mL

CO/N=C(\C(=O)N[C@@H]1C(=O)N2C(C(=O)O)=C(CSc3nc(=O)c(=O)[nH]n3C)CS[C@H]12)c1csc(N)n1 [ceftriaxone, ceftriaxone sodium, reference compound]
MIC range [1]: 0.03 to 32 µg/mL | MIC50 [1, 10]: 1 µg/mL | MIC90 [1, 11]: 32 µg/mL | MIC range [4]: ≤0.002 to 0.12 µg/mL | MIC50 ([4]; Neisseria gonorrhoeae): 0.012 µg/mL | MIC90 ([4]; Neisseria gonorrhoeae): 0.094 µg/mL

colistin sulfate
MIC50 [1]: 0.5 µg/mL | MIC90 [1]: 0.5 µg/mL

C[C@@H](O)[C@H]1C(=O)N2C(C(=O)O)=C(SCCN=CN)C[C@H]12 [imipenem, imipenem monohydrate, reference compound]
MIC ([1]; Escherichia coli): 0.06 to 16 µg/mL | MIC50 [1, 10]: 0.12 µg/mL | MIC90 [1, 11]: 4 µg/mL | MIC50 [5, 12]: 8 µg/mL | MIC90 [5, 13]: 16 µg/mL | MIC [5, 14]: 2 to 16 µg/mL

Cc1ncc([N+](=O)[O-])n1CCO [metronidazole, reference compound]
MIC50 [5, 12]: 0.5 µg/mL (≈ 2.92 µM) | MIC90 [5, 13]: 1 µg/mL (≈ 5.84 µM) | MIC [5, 14]: 0.25 to 2 µg/mL (≈ 1.46 to 11.7 µM) | MIC (C. difficile ATCC 700057): 0.25 µg/mL (≈ 1.46 µM)

CCCCCCCCCC(=O)N[C@@H](Cc1c[nH]c2ccccc12)C(=O)N[C@H](CC(N)=O)C(=O)N[C@@H](CC(=O)O)C(=O)N[C@@H]1C(=O)NCC(=O)N[C@@H](CCCN)C(=O)N[C@@H](CC(=O)O)C(=O)N[C@H](C)C(=O)N[C@@H](CC(=O)O)C(=O)NCC(=O)N[C@H](CO)C(=O)N[C@@H]([C@H](C)CC(=O)O)C(=O)N[C@@H](CC(=O)c2ccccc2N)C(=O)O[C@@H]1C [daptomycin, reference compound]
MIC50 ([2]; Enterococcus faecalis): 1 µg/mL (≈ 0.617 µM) | MIC90 ([2]; Enterococcus faecalis): 1 µg/mL (≈ 0.617 µM) | MIC ([2]; Enterococcus faecalis): 0.5 to 2 µg/mL (≈ 0.309 to 1.23 µM) | MIC50 ([3]; Enterococcus faecium): 4 µg/mL (≈ 2.47 µM) | MIC90 ([3]; Enterococcus faecium): 4 µg/mL (≈ 2.47 µM) | MIC ([3]; Enterococcus faecium): 2 to 4 µg/mL (≈ 1.23 to 2.47 µM)

CCC[C@@H]1C[C@@H](C(=O)N[C@@H]([C@H]2O[C@H](SC)[C@H](O)[C@@H](O)[C@H]2O)[C@H](C)Cl)N(C)C1 [clindamycin, clindamycin hydrochloride, reference compound]
MIC50 [5, 12]: 8 µg/mL | MIC90 [5, 13]: 32 µg/mL | MIC [5, 14]: 4 to 32 µg/mL

CN[C@H](CC(C)C)C(=O)N[C@H]1C(=O)N[C@@H](CC(N)=O)C(=O)N[C@H]2C(=O)N[C@H]3C(=O)N[C@H](C(=O)N[C@H](C(=O)O)c4cc(O)cc(O)c4-c4cc3ccc4O)[C@H](O)c3ccc(c(Cl)c3)Oc3cc2cc(c3O[C@@H]2O[C@H](CO)[C@@H](O)[C@H](O)[C@H]2O[C@H]2C[C@](C)(N)[C@H](O)[C@H](C)O2)Oc2ccc(cc2Cl)[C@H]1O [vancomycin, vancomycin hydrochloride, reference compound]
MIC range ([6]; S. aureus MDR clinical isolates (n = 10)): 1 to 4 µg/mL | MIC50 ([6]; Staphylococcus aureus): 1 µg/mL | MIC90 ([6]; Staphylococcus aureus): 2 µg/mL | MIC50 ([2]; Enterococcus faecalis): > 64 µg/mL | MIC90 ([2]; Enterococcus faecalis): > 64 µg/mL | MIC50 ([3]; Enterococcus faecium): > 64 µg/mL | MIC90 ([3]; Enterococcus faecium): > 64 µg/mL | MIC ([3]; Enterococcus faecium): > 64 µg/mL | MIC50 [5]: 2 µg/mL | MIC90 [5]: 2 µg/mL | MIC [5]: 1 to 2 µg/mL

CC(=O)NC[C@H]1CN(c2ccc(N3CCOCC3)c(F)c2)C(=O)O1 [linezolid, reference compound]
MIC50 ([2]; Enterococcus faecalis): 2 µg/mL (≈ 5.93 µM) | MIC90 ([2]; Enterococcus faecalis): 2 µg/mL (≈ 5.93 µM) | MIC ([2]; Enterococcus faecalis): 1 to 2 µg/mL (≈ 2.96 to 5.93 µM) | MIC50 ([3]; Enterococcus faecium): 2 µg/mL (≈ 5.93 µM) | MIC90 ([3]; Enterococcus faecium): 2 µg/mL (≈ 5.93 µM) | MIC ([3]; Enterococcus faecium): 2 µg/mL (≈ 5.93 µM)

C[C@H]1COc2c(N3CCN(C)CC3)c(F)cc3c(=O)c(C(=O)O)cn1c23 [levofloxacin]
MIC range [1]: 0.03 to 32 µg/mL | MIC50 [1, 10]: 4 µg/mL (≈ 11.1 µM) | MIC90 [1, 11]: 16 µg/mL (≈ 44.3 µM)

O=C(O)c1cn(C2CC2)c2cc(N3CCNCC3)c(F)cc2c1=O [ciprofloxacin, Ciprofloxacin hydrochloride, reference compound]
Bactericidal activity in time-kill (reduction of 3 log10 CFU/ml) (S. aureus ATCC BAA-1720): no bactericidal effect | MBC (E. coli ATCC 25922): 0.016 µg/mL | MBC (S. aureus BAA-1720): 256 µg/mL | MBC (S. aureus ATCC 29213 [7]): 1 µg/mL | PAE (S. aureus ATCC 29213 [8]; 1-hour exposure at 1× and 4× MIC): 25 min | PAE (S. aureus ATCC 29213 [8]; 1-hour exposure at 16× MIC): 35 min

teicoplanin [reference compound]
MIC50 [2, 15]: >64 µg/mL | MIC90 [2, 15]: >64 µg/mL | MIC50 [3, 16]: 1 µg/mL | MIC90 [3, 16]: 64 µg/mL

CNC(C)C1CCC(N)C(OC2C(N)CC(N)C(OC3OCC(C)(O)C(NC)C3O)C2O)O1 (stereo not drawn) [gentamicin, gentamicin sulfate]
MIC50 [1, 10]: 2 µg/mL | MIC90 [1, 11]: 32 µg/mL

CC1(C)S[C@@H]2[C@H](NC(=O)[C@H](N)c3ccccc3)C(=O)N2[C@H]1C(=O)O [ampicillin, reference compound]
MIC50 [1, 10]: > 64 µg/mL | MIC90 [1, 11]: > 64 µg/mL | MIC50 ([2]; Enterococcus faecalis): 2 µg/mL (≈ 5.72 µM) | MIC90 ([2]; Enterococcus faecalis): 2 µg/mL (≈ 5.72 µM) | MIC ([2]; Enterococcus faecalis): 1 to 4 µg/mL (≈ 2.86 to 11.4 µM) | MIC50 ([3]; Enterococcus faecium): > 64 µg/mL | MIC90 ([3]; Enterococcus faecium): > 64 µg/mL | MIC ([3]; Enterococcus faecium): > 64 µg/mL

C[C@@H](O)[C@H]1C(=O)N2C(C(=O)O)=C(S[C@@H]3CN[C@H](C(=O)N(C)C)C3)[C@H](C)[C@H]12 [meropenem, reference compound]
MIC50 [9]: 8 µg/mL (≈ 20.9 µM) | MIC90 [9]: ≥ 8 µg/mL

CCc1c(Cl)c(O)c(Cl)c(O)c1C(=O)O[C@H]1[C@H](O)[C@H](OC)[C@H](OC/C2=C\C=C\C[C@H](O)/C(C)=C/[C@H](CC)[C@@H](O[C@@H]3OC(C)(C)[C@@H](OC(=O)C(C)C)[C@H](O)[C@@H]3O)/C(C)=C/C(C)=C/C[C@@H]([C@@H](C)O)OC2=O)O[C@@H]1C [fidaxomicin, reference compound]
MIC [5, 14]: 0.03 to 1 µg/mL (≈ 0.0284 to 0.945 µM)
